Experimental data: US20150105252A1, “SUBSTITUTED PYRAZOLES AS HERBICIDES” (E I DU PONT DE NEMOURS AND COMPANY, priority 2013, published 2015)

How the values were obtained:
barnyardgrass [1] = assay: Test A preemergence; type: in vivo, Echinochloa crus-galli; details: preemergence; for Barnyardgrass plant response rating (0 to 100 scale, 0 is no effect, 100 is complete control): 125 g ai/ha, visual injury approx. 10 days after treatment; for Barnyardgrass plant response rating: 500 g ai/ha, visual injury after approx. 10 days, 0 to 100 scale (0 no effect, 100 complete control)
Outline: (§1)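 Growth medium: loam soil blended with sand. Preemergence treatment used a directed soil spray right after planting; postemergence treatment targeted seedlings at one to two leaves (2–10 cm height). Response was judged by eye relative to untreated plants about 10 days later on a 0–100 control scale.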

crabgrass, large [2] = assay: Test A preemergence; type: in vivo, Digitaria sanguinalis; details: preemergence; for Crabgrass, Large plant response rating (0 to 100 scale): 125 g ai/ha, visual injury approx. 10 days after treatment; for Crabgrass, Large plant response rating: 500 g ai/ha, visual injury after approx. 10 days, 0 to 100 scale (0 no effect, 100 complete control)
Outline: as §1

velvetleaf [3] = assay: Test A preemergence; type: in vivo, Abutilon theophrasti; details: preemergence; for Velvetleaf plant response rating (0 to 100 scale): 125 g ai/ha, visual injury approx. 10 days after treatment; for Velvetleaf plant response rating: 500 g ai/ha, visual injury after approx. 10 days, 0 to 100 scale (0 no effect, 100 complete control)
Outline: as §1

wheat [4] = assay: Test A preemergence; type: in vivo, Triticum aestivum; details: preemergence; for Wheat plant response rating (0 to 100 scale): 125 g ai/ha, visual injury approx. 10 days after treatment; for Wheat plant response rating: 500 g ai/ha, visual injury after approx. 10 days, 0 to 100 scale (0 no effect, 100 complete control)
Outline: as §1

corn [5] = assay: Test A preemergence; type: in vivo, Zea mays; details: preemergence; for Corn plant response rating (0 to 100 scale): 125 g ai/ha, visual injury approx. 10 days after treatment; for Corn plant response rating: 500 g ai/ha, visual injury after approx. 10 days, 0 to 100 scale (0 no effect, 100 complete control)
Outline: as §1

crabgrass, large [6] = assay: Test A postemergence; type: in vivo, Digitaria sanguinalis
Outline: as §1

pigweed = assay: Test A postemergence; type: in vivo, Amaranthus retroflexus; details: Postemergence
Outline: as §1

wheat [7] = assay: Test A postemergence; type: in vivo, Triticum aestivum; details: Postemergence
Outline: as §1

blackgrass = assay: Test C preemergence; type: in vivo, Alopecurus myosuroides; details: preemergence; for Plant response rating, Blackgrass: 125 g ai/ha, scale 0 to 100, 0 = no effect, 100 = complete control
Outline: (§2)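 In this greenhouse assay, seeded soil (loam plus sand) or emerged seedlings in peat-vermiculite medium were treated with formulated compound. Roughly two weeks later (13–15 days), each species was scored visually relative to controls, from 0 for no effect to 100 for complete control.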

wheat [8] = assay: Test C preemergence; type: in vivo, Triticum aestivum; details: preemergence; for Plant response rating, Wheat: 125 g ai/ha, scale 0 to 100, 0 = no effect, 100 = complete control
Outline: as §2

corn [9] = assay: Test C preemergence; type: in vivo, Zea mays; details: preemergence; for Plant response rating, Corn: 125 g ai/ha, scale 0 to 100, 0 = no effect, 100 = complete control
Outline: as §2

foxtail, giant = assay: Test C preemergence; type: in vivo, Setaria faberii; details: preemergence; for Plant response rating, Foxtail, Giant: 125 g ai/ha, scale 0 to 100, 0 = no effect, 100 = complete control
Outline: as §2

johnsongrass = assay: Test C preemergence; type: in vivo, Sorghum halepense; details: preemergence; for Plant response rating, Johnsongrass: 125 g ai/ha, scale 0 to 100, 0 = no effect, 100 = complete control
Outline: as §2

ragweed = assay: Test C preemergence; type: in vivo, Ambrosia elation; details: preemergence; for Plant response rating, Ragweed: 125 g ai/ha, scale 0 to 100, 0 = no effect, 100 = complete control
Outline: as §2

barnyardgrass [10] = assay: Test C preemergence; type: in vivo, Echinochloa crus-galli; details: preemergence; for Plant response rating, Barnyardgrass: 125 g ai/ha, scale 0 to 100, 0 = no effect, 100 = complete control
Outline: as §2

oilseed rape = assay: Test C preemergence; type: in vivo, Brassica napus; details: preemergence; for Plant response rating, Oilseed Rape: 125 g ai/ha, scale 0 to 100, 0 = no effect, 100 = complete control
Outline: as §2

velvetleaf [11] = assay: Test C preemergence; type: in vivo, Abutilon theophrasti; details: preemergence; for Plant response rating, Velvetleaf: 125 g ai/ha, scale 0 to 100, 0 = no effect, 100 = complete control
Outline: as §2

[12] = Postemergence, 500 g ai/ha, 0 to 100 scale (0 no effect, 100 complete control)
[13] = postemergence, 125 g ai/ha, about 10 days, visual rating on 0 to 100 scale (0 no effect, 100 complete control)
[14] = 125 g ai/ha, 0 to 100 scale, 0 no effect, 100 complete control
[15] = 500 g ai/ha, 0 to 100 scale (0 no effect, 100 complete control)
[16] = 31 g ai/ha, visual rating, scale 0 to 100 (0 no effect, 100 complete control), 13 to 15 days
[17] = 62 g ai/ha, scale 0 to 100 (0 no effect, 100 complete control), 13 to 15 days
[18] = 250 g ai/ha, scale 0 to 100, 0 is no effect, 100 is complete control

CCOc1cc(C(=O)NC(C)C)nn1Cc1ccnc(C(F)(F)F)c1 [Compound 188]
55: Corn plant response rating (corn [9]; [16])
75: Ragweed plant response rating (ragweed; [16])
80: Wheat plant response rating (wheat [7]; [14]) | Johnsongrass plant response rating (johnsongrass; [16])
98: Plant response rating, Corn (corn [9]; 13 to 15 days) | Corn plant response rating (corn [9]; [18]) | Johnsongrass plant response rating (johnsongrass; [17]) | Ragweed plant response rating (ragweed; [18])
90: Crabgrass, Large plant response rating (crabgrass, large [6]; [12]) | Crabgrass, Large plant response rating (crabgrass, large [6]; [13]) | Wheat plant response rating (wheat [7]; [15]) | Blackgrass plant response rating (blackgrass; [16]) | Blackgrass plant response rating (blackgrass; [17]) | Plant response rating, Blackgrass (blackgrass; 13 to 15 days) | Blackgrass plant response rating (blackgrass; [18]) | Wheat plant response rating (wheat [8]; [17]) | Plant response rating, Wheat (wheat [8]; 13 to 15 days) | Wheat plant response rating (wheat [8]; [18])
85: Wheat plant response rating (wheat [8]; [16]) | Corn plant response rating (corn [9]; [17])
95: Ragweed plant response rating (ragweed; [17])
100: Barnyardgrass plant response rating (0 to 100 scale, 0 is no effect, 100 is complete control) (barnyardgrass [1]) | Barnyardgrass plant response rating (barnyardgrass [1]) | Crabgrass, Large plant response rating (0 to 100 scale) (crabgrass, large [2]) | Crabgrass, Large plant response rating (crabgrass, large [2]) | Velvetleaf plant response rating (0 to 100 scale) (velvetleaf [3]) | Velvetleaf plant response rating (velvetleaf [3]) | Wheat plant response rating (0 to 100 scale) (wheat [4]) | Wheat plant response rating (wheat [4]) | Corn plant response rating (0 to 100 scale) (corn [5]) | Corn plant response rating (corn [5]) | Pigweed plant response rating (pigweed; [14]) | Pigweed plant response rating (pigweed; [15]) | Foxtail, Giant plant response rating (foxtail, giant; [16]) | Foxtail, Giant plant response rating (foxtail, giant; [17]) | Plant response rating, Foxtail, Giant (foxtail, giant; 13 to 15 days) | Foxtail, Giant plant response rating (foxtail, giant; [18]) | Plant response rating, Johnsongrass (johnsongrass; 13 to 15 days) | Johnsongrass plant response rating (johnsongrass; [18]) | Plant response rating, Ragweed (ragweed; 13 to 15 days) | Barnyardgrass plant response rating (barnyardgrass [10]; [16]) | Barnyardgrass plant response rating (barnyardgrass [10]; [17]) | Plant response rating, Barnyardgrass (barnyardgrass [10]; 13 to 15 days) | Barnyardgrass plant response rating (barnyardgrass [10]; [18]) | Oilseed Rape plant response rating (oilseed rape; [16]) | Oilseed Rape plant response rating (oilseed rape; [17]) | Plant response rating, Oilseed Rape (oilseed rape; 13 to 15 days) | Oilseed Rape plant response rating (oilseed rape; [18]) | Velvetleaf plant response rating (velvetleaf [11]; [16]) | Velvetleaf plant response rating (velvetleaf [11]; [17]) | Plant response rating, Velvetleaf (velvetleaf [11]; 13 to 15 days) | Velvetleaf plant response rating (velvetleaf [11]; [18])

CCOc1cc(C(=O)NC2CC2)nn1Cc1ccnc(C(F)(F)F)c1 [Compound 189]
100: Barnyardgrass plant response rating (barnyardgrass [1]) | Crabgrass, Large plant response rating (0 to 100 scale) (crabgrass, large [2]) | Crabgrass, Large plant response rating (crabgrass, large [2]) | Velvetleaf plant response rating (0 to 100 scale) (velvetleaf [3]) | Velvetleaf plant response rating (velvetleaf [3]) | Wheat plant response rating (wheat [4]) | Corn plant response rating (corn [5]) | Pigweed plant response rating (pigweed; [15]) | Foxtail, Giant plant response rating (foxtail, giant; [16]) | Foxtail, Giant plant response rating (foxtail, giant; [17]) | Plant response rating, Foxtail, Giant (foxtail, giant; 13 to 15 days) | Foxtail, Giant plant response rating (foxtail, giant; [18]) | Plant response rating, Johnsongrass (johnsongrass; 13 to 15 days) | Johnsongrass plant response rating (johnsongrass; [18]) | Plant response rating, Ragweed (ragweed; 13 to 15 days) | Barnyardgrass plant response rating (barnyardgrass [10]; [17]) | Plant response rating, Barnyardgrass (barnyardgrass [10]; 13 to 15 days) | Barnyardgrass plant response rating (barnyardgrass [10]; [18]) | Velvetleaf plant response rating (velvetleaf [11]; [17]) | Plant response rating, Velvetleaf (velvetleaf [11]; 13 to 15 days) | Velvetleaf plant response rating (velvetleaf [11]; [18])
80: Corn plant response rating (0 to 100 scale) (corn [5]) | Pigweed plant response rating (pigweed; [14]) | Wheat plant response rating (wheat [7]; [14]) | Wheat plant response rating (wheat [8]; [17])
5: Corn plant response rating (corn [9]; [16])
95: Barnyardgrass plant response rating (barnyardgrass [10]; [16]) | Oilseed Rape plant response rating (oilseed rape; [17]) | Plant response rating, Oilseed Rape (oilseed rape; 13 to 15 days) | Oilseed Rape plant response rating (oilseed rape; [18])
85: Plant response rating, Corn (corn [9]; 13 to 15 days) | Ragweed plant response rating (ragweed; [16])
98: Corn plant response rating (corn [9]; [18]) | Johnsongrass plant response rating (johnsongrass; [17]) | Ragweed plant response rating (ragweed; [17]) | Ragweed plant response rating (ragweed; [18]) | Oilseed Rape plant response rating (oilseed rape; [16]) | Velvetleaf plant response rating (velvetleaf [11]; [16])
90: Barnyardgrass plant response rating (0 to 100 scale, 0 is no effect, 100 is complete control) (barnyardgrass [1]) | Wheat plant response rating (0 to 100 scale) (wheat [4]) | Crabgrass, Large plant response rating (crabgrass, large [6]; [12]) | Crabgrass, Large plant response rating (crabgrass, large [6]; [13]) | Wheat plant response rating (wheat [7]; [15]) | Blackgrass plant response rating (blackgrass; [16]) | Blackgrass plant response rating (blackgrass; [17]) | Plant response rating, Blackgrass (blackgrass; 13 to 15 days) | Blackgrass plant response rating (blackgrass; [18]) | Plant response rating, Wheat (wheat [8]; 13 to 15 days) | Wheat plant response rating (wheat [8]; [18])
40: Wheat plant response rating (wheat [8]; [16]) | Corn plant response rating (corn [9]; [17])
65: Johnsongrass plant response rating (johnsongrass; [16])
